The results in this text go back to patent publication US20250296940A1, “ANNULATED 2-AMINO-3-CYANO THIOPHENES AND DERIVATIVES FOR THE TREATMENT OF CANCER” (Boehringer Ingelheim Int'l GmbH Corp., priority 2021, published 2025).

One data set addresses T1, CYP3A4 (Homo sapiens, UniProt P08684).
T1 construct: assayed in human liver microsomes (0.02 mg/mL) with midazolam (15 μM) as a substrate; from tissue; host or cells: human liver microsomes
Nature of the data set: Mechanism based inhibition of CYP3A4 assay (MBI 3A4). It counts as in vitro ADME. The conditions noted are these: human liver microsomes, 25 uM compound; hydroxy-midazolam formation after 30 min preincubation relative to 0 min. The procedure:
The time dependent inhibition towards CYP3A4 is assayed in human liver microsomes (0.02 mg/mL) with midazolam (15 μM) as a substrate. The test compounds and water control (wells w/o test compound) are preincubated in presence of NADPH (1 mM) with human liver microsomes (0.2 mg/mL) at a concentration of 25 uM for 0 min and 30 min. After preincubation, the incubate is diluted 1:10 and the substrate midazolam is added for the main incubation (15 min). The main incubation is quenched with acetonitrile and the formation of hydroxy-midazolam is quantified via LC/MS-MS. The formation of hydroxy-midazolam from the 30 min preincubation relative to the formation from the 0 min preincubation is used as a readout. Values of less than 100% mean that the substrate midazolam is metabolized to a lower extent upon 30 min preincubation compared to 0 min preincubation. In general low effects upon 30 min preincubation are desired (corresponding to values close to 100%/not different to the values determined with water control).
(§1) Data obtained with the disclosed assay for a selection of compounds (I) according to the invention: […]

The next data set is described as follows: Caco-2 assay. It counts as in vitro ADME. To be noted: human, 10 μM compound; for Papp A→B at 90 min, 10 μM: apical to basolateral, pH 7.4, read-out: Caco PappAB; for efflux ratio at 90 min, 10 μM: efflux ratio PappBA/PappAB, pH 7.4, read-out: Caco ER.
From the text: The assay provides information on the potential of a compound to pass the cell membrane, on the extent of oral absorption as well as on whether the compound is actively transported by uptake and/or efflux transporters. Permeability measurements across polarized, confluent Caco-2 cell monolayers grown on permeable filter supports (Corning, catalog #3391) are used. […] The receiver and donor compartments contain 0.25% bovine serum albumine (BSA) in assay buffer. Passive diffusion and/or active transport of compounds across the monolayer is measured in both apical to basolateral (a-b) and basolateral to apical (b-a) direction. a-b permeability (PappAB) represents drug absorption from the intestine into the blood and b-a permeability (PappBA) drug secretion from the blood back into the intestine via both passive permeability as well as active transport mechanisms mediated by efflux and uptake transporters that are expressed on the Caco-2 cells. After a pre-incubation of 25-30 min at 37° C., at predefined time points (0, 30, 60 and 90 min), samples were taken from the receiver and donor compartment, respectively. Concentrations of test compounds in samples were measured by HPLC/MS/MS, samples from the donor compartment were diluted 1:50 (v:v) with assay buffer, samples from receiver compartment were measured without dilution.
Apparent permeabilities in a-b (PappAB) and b-a (PappBA) directions are calculated according to the formula:
[formula] • Vrec [mL]: buffer volume in receiver compartment • Cdon [μmol/mL]: concentration of test compound in donor compartment at t=0 • ΔCrec: difference between concentrations of test compound in receiver compartment at start and end of incubation time • Δt: Incubation time • Vrec·ΔCrec/Δt [μmol/min]: Amount of compound transferred to receiver compartment per time • A [cm^2]: filter surface
Caco-2 efflux ratios (ER) are calculated as the ratio of PappBA/PappAB.
as §1

Each structure is given as a SMILES string.

T1 sequence (P08684 whole entry): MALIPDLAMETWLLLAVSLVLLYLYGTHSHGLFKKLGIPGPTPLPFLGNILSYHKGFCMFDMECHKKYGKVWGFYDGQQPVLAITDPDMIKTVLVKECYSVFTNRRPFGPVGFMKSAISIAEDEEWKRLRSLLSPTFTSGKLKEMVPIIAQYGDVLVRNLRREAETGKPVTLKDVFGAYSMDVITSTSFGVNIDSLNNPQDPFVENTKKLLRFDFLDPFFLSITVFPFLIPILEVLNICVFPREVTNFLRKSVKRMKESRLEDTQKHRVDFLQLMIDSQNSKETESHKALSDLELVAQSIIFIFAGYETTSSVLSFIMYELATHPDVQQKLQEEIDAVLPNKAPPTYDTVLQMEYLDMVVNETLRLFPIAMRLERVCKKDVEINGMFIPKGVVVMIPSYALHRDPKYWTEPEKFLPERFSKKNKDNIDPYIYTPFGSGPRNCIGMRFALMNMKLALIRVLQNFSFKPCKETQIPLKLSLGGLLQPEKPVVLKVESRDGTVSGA

As to `C=C(F)C(=O)N1[C@@H](C)CN(c2cc(O[C@@H](C)[C@@H]3CCCN3C)nc(-c3onc4c3CCC[C@@]43CCCc4sc(N)c(C#N)c43)n2)C[C@@H]1C` [Ia-1], the “MBI 3A4” value at CYP3A4 turned out to be 61%. Besides, in the data set “Caco-2 assay”, the Papp A→B at 90 min, 10 μM is 4.4 ×10⁻⁶ cm/s and the efflux ratio at 90 min, 10 μM is 3.6.
As for `C=CC(=O)N1[C@@H](C)CN(c2cc(O[C@@H](C)[C@@H]3CCCN3C)nc(-c3onc4c3CCC[C@@]43CCCc4sc(N)c(C#N)c43)n2)C[C@@H]1C` [Ia-2], the “MBI 3A4” value on CYP3A4 was determined as 62%. Besides, in “Caco-2 assay”, the Papp A→B at 90 min, 10 μM was 2.9 ×10⁻⁶ cm/s and the efflux ratio at 90 min, 10 μM is 8.6.
For `C=CC(=O)N1[C@@H](C)CN(c2cc(-c3onc4c3CCC[C@@]43CCCc4sc(N)c(C#N)c43)nc(O[C@@H](C)[C@@H]3CCCN3C)n2)C[C@@H]1C` [Ia-4], in the data set “Caco-2 assay”, the Papp A→B at 90 min, 10 μM came out at 1.3 ×10⁻⁶ cm/s and the efflux ratio at 90 min, 10 μM was found to be 30.7.
With `C[C@H](Oc1cc(N2C[C@H](C)N(C(=O)/C=C/CF)[C@@H](C)C2)nc(-c2noc3c2CCC[C@@]32CCCc3sc(N)c(C#N)c32)n1)[C@@H]1CCCN1C` [Ib-1], in “Caco-2 assay”, the Papp A→B at 90 min, 10 μM was determined as 0.8 ×10⁻⁶ cm/s and the efflux ratio at 90 min, 10 μM was 28.6.
With `C=CC(=O)N1CCN(c2cc(O[C@@H](C)[C@@H]3CCCN3C)nc(-c3noc4c3CCC[C@@]43CCCc4sc(N)c(C#N)c43)n2)CC12CC2` [Ib-2], the efflux ratio at 90 min, 10 μM in “Caco-2 assay” was determined as 18.2.
In the case of `C=CC(=O)N1[C@@H](C)CN(c2cc(O[C@@H](C)[C@@H]3CCCN3C)nc(-c3noc4c3CCC[C@@]43CCCc4sc(N)c(C#N)c43)n2)C[C@@H]1C` [Ib-3], the “MBI 3A4” value at CYP3A4 amounted to 65%. Also, in “Caco-2 assay”, the Papp A→B at 90 min, 10 μM was determined as 6.3 ×10⁻⁶ cm/s and the efflux ratio at 90 min, 10 μM amounted to 3.
For `C=CC(=O)N1[C@@H](C)CN(c2cc(-c3noc4c3CCC[C@@]43CCCc4sc(N)c(C#N)c43)nc(O[C@@H](C)[C@@H]3CCCN3C)n2)C[C@@H]1C` [Ib-4], at CYP3A4, the “MBI 3A4” value amounted to 78%. In “Caco-2 assay”, the Papp A→B at 90 min, 10 μM worked out at 3.1 ×10⁻⁶ cm/s and the efflux ratio at 90 min, 10 μM worked out at 12.3.
Regarding `C=C(F)C(=O)N1[C@@H](C)CN(c2cc(O[C@@H](C)[C@@H]3CCCN3C)nc(-c3noc4c3CCC[C@@]43CCCc4sc(N)c(C#N)c43)n2)C[C@@H]1C` [Ib-5], the “MBI 3A4” value on CYP3A4 is given as 69%. In addition, in the data set “Caco-2 assay”, the Papp A→B at 90 min, 10 μM was determined as 11 ×10⁻⁶ cm/s and the efflux ratio at 90 min, 10 μM amounted to 1.1.
Regarding `C=C(F)C(=O)N1[C@@H](C)CN(c2cc(-c3noc4c3CCC[C@@]43CCCc4sc(N)c(C#N)c43)nc(O[C@@H](C)[C@@H]3CCCN3C)n2)C[C@@H]1C` [Ib-6], the “MBI 3A4” value at CYP3A4 was 64%. In addition, in the data set “Caco-2 assay”, the Papp A→B at 90 min, 10 μM was 9.2 ×10⁻⁶ cm/s and the efflux ratio at 90 min, 10 μM was found to be 1.7.
Consider `C[C@H](Oc1nc(-c2noc3c2CCC[C@@]32CCCc3sc(N)c(C#N)c32)cc(N2C[C@H](C)N(C(=O)/C=C/CF)[C@@H](C)C2)n1)[C@@H]1CCCN1C` [Ib-7], for which, on CYP3A4, the “MBI 3A4” value is 62%. In “Caco-2 assay”, the Papp A→B at 90 min, 10 μM worked out at 2.4 ×10⁻⁶ cm/s and the efflux ratio at 90 min, 10 μM is 10.4.
In the case of `COC/C=C/C(=O)N1[C@@H](C)CN(c2cc(-c3noc4c3CCC[C@@]43CCCc4sc(N)c(C#N)c43)nc(O[C@@H](C)[C@@H]3CCCN3C)n2)C[C@@H]1C` [Ib-9], at CYP3A4, the “MBI 3A4” value was found to be 68%. Moreover, in the data set “Caco-2 assay”, the Papp A→B at 90 min, 10 μM stood at 2.4 ×10⁻⁶ cm/s and the efflux ratio at 90 min, 10 μM came to 7.5.
